Target: T1, Gamma-glutamyl transpeptidase (eqGGT) (Equus caballus, UniProt F7DXY0)
T1 construct: GGT from equine kidney (Sigma-Aldrich)
Experiment: time-dependent irreversible inactivation, pre-incubation with […] DON then dilution
Type: biochemical

T1 sequence (F7DXY0 75-452): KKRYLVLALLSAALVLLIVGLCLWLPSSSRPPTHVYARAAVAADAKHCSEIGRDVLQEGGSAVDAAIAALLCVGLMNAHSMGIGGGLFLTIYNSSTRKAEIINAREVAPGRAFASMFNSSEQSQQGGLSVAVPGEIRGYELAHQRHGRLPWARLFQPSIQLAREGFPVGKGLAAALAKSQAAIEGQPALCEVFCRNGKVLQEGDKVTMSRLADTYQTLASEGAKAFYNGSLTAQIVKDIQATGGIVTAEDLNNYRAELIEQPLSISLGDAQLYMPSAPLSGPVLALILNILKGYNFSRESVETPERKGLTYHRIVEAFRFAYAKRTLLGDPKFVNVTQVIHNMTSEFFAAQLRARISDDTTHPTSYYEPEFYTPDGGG
T1 sequence (F7DXY0 453-641): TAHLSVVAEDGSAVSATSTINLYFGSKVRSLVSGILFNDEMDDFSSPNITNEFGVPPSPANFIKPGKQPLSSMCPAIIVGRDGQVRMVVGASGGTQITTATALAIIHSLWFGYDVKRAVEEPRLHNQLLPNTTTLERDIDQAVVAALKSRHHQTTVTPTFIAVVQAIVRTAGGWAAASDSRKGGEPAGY

SMILES: [N-]=[N+]=CC(=O)CC[C@H](N)C(=O)O [DON, 6-diazo-5-oxo-L-norleucine]
- time-dependent irreversible inactivation, pre-incubation with 400 μM DON then di: DON acts as an irreversible inhibitor, and then as an inactivator of GGT, because, after dilution, the activity was not restored

Source: paper PMC6949936, “Probing the Interactions of Sulfur-Containing Histidine Compounds with Human Gamma-Glutamyl Transpeptidase” (Marine Drugs, 2019)
